Experimental findings from US11629143B2, “HipK4 inhibitors and uses thereof” (Vibliome Therapeutics, LLC, priority 2020, dated 2023) are described below.

What all share (assay): Kinase panel (mobility shift)
Common to all, as to type: biochemical

The target in test [1] is KIT (Homo sapiens, UniProt P10721). The essentials: (§1)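 Each kinase was incubated with a fluorescently labeled substrate and compound in a standard reaction mix. After the reaction was stopped, product and substrate were separated on microfluidic chips by electrophoretic mobility shift. Activity came from comparing product and substrate peak fluorescence, graded A (95% or greater), B (90%-94%) or C (80%-89%) at 5 um.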
Chain of KIT (P10721 26-976, species assumed): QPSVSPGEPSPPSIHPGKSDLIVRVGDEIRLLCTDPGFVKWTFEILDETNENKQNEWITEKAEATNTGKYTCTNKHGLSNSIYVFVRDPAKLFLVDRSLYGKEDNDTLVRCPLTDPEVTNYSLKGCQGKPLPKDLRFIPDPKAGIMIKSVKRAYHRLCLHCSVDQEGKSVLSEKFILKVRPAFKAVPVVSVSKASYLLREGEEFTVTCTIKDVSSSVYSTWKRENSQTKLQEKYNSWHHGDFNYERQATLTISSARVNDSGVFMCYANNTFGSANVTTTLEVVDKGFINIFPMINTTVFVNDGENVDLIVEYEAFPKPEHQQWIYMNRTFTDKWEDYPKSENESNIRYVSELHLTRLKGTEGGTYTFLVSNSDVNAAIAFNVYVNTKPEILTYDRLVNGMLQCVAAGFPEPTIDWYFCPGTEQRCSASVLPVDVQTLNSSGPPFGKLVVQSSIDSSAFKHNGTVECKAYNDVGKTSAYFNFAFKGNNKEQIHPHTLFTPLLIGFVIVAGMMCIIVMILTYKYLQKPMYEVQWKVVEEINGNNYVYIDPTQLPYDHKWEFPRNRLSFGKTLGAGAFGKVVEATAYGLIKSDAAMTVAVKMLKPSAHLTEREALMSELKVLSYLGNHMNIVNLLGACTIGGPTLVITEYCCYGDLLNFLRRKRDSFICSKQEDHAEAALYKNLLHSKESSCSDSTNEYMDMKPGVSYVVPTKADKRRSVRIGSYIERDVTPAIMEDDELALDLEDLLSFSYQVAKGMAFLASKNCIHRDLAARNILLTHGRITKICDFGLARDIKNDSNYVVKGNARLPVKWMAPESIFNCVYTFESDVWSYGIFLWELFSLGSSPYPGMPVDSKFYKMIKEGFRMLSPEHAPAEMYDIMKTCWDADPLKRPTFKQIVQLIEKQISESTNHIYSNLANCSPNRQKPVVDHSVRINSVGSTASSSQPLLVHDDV

Test [2] has as its target P38-a (Homo sapiens, UniProt Q16539). To be noted: at 5 um. The essentials: as §1
Test [3] concerns the target T1, TYRO3 (Homo sapiens, UniProt Q06418).
T1 sequence (Q06418 41-890): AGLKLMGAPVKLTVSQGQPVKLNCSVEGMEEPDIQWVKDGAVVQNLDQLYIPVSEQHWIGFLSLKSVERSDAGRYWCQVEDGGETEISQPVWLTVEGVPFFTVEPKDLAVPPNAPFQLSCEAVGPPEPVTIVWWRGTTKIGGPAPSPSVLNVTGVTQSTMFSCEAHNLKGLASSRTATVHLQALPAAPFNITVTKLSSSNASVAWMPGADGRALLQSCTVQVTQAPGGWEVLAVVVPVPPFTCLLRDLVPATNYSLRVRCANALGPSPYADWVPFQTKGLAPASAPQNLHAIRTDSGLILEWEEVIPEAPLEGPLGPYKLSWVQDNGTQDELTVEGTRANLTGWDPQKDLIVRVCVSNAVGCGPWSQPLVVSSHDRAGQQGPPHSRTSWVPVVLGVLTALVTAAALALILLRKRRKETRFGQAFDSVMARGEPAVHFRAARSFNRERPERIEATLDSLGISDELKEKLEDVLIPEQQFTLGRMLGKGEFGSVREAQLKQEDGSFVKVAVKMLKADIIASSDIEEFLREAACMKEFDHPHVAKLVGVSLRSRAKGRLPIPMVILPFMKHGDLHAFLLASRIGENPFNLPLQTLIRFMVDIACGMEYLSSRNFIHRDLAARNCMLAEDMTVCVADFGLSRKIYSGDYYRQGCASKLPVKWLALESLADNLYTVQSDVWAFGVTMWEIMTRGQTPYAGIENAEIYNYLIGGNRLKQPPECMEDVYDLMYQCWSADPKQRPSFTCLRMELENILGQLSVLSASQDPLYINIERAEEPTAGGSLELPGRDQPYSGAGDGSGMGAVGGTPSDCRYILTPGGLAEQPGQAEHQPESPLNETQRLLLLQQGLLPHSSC
The method, boiled down: as §1

Test [4] has as its target T2, AXL (Homo sapiens, UniProt P30530).
T2 sequence (P30530 26-894): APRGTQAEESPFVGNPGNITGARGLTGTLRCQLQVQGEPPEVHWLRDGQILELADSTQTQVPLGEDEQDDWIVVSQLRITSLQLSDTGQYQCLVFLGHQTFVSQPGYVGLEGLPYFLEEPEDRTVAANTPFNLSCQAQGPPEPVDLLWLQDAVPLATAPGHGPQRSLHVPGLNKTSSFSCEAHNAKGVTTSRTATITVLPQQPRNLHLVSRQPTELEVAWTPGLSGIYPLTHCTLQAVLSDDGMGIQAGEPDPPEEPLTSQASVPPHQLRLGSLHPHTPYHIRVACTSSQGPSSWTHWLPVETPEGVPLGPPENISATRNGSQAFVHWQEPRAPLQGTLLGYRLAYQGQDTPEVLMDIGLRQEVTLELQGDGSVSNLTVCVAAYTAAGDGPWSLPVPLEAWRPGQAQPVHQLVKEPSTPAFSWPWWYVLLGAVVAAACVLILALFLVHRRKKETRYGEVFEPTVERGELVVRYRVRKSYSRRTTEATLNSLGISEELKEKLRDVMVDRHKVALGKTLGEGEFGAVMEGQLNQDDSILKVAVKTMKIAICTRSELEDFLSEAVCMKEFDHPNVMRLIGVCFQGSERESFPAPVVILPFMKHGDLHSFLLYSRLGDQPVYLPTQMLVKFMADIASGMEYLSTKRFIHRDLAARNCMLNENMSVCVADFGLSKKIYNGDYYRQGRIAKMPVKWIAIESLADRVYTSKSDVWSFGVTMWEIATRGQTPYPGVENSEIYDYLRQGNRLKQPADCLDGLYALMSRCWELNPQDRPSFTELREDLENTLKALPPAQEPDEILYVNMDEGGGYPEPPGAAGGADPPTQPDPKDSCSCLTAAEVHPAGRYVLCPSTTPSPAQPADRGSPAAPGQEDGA
The method, boiled down: as §1

The target in test [5] is T3, MUSK (Homo sapiens, UniProt O15146).
T3 sequence (O15146 24-869): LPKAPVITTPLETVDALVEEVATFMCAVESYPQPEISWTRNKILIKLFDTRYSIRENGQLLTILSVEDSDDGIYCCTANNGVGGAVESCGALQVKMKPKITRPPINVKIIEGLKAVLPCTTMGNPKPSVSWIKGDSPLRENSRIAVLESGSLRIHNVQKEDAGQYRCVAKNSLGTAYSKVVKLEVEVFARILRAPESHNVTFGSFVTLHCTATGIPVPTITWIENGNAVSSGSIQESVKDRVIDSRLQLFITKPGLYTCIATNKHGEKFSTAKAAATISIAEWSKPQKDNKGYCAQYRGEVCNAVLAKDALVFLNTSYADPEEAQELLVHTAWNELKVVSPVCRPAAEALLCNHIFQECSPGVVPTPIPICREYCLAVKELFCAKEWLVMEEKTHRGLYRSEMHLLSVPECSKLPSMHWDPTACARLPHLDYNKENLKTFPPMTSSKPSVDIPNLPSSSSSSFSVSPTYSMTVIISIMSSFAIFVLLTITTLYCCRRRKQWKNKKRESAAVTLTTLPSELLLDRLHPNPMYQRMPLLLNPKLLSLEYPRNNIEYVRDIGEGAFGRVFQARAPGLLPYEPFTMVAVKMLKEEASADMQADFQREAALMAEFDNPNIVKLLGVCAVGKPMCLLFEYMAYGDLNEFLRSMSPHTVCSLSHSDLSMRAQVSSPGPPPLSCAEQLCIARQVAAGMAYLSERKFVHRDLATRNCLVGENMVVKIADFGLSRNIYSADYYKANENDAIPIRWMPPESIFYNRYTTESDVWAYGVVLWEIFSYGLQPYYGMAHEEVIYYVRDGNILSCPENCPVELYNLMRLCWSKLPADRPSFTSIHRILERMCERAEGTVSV
The essentials: as §1

Test [6] concerns the target EPH-A4 (Homo sapiens, UniProt P54764). The essentials: as §1

Chain of P38-a (Q16539 whole entry): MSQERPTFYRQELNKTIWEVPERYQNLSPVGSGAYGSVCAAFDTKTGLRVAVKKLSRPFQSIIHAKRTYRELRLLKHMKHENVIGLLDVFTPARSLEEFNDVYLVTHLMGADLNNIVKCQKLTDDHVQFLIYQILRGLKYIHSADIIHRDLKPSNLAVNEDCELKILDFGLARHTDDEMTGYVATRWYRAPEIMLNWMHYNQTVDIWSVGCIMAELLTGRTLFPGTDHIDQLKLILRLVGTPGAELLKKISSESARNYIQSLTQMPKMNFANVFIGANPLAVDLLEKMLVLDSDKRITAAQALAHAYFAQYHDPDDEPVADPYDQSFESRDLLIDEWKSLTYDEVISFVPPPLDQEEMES
Chain of EPH-A4 (P54764 20-986, species assumed): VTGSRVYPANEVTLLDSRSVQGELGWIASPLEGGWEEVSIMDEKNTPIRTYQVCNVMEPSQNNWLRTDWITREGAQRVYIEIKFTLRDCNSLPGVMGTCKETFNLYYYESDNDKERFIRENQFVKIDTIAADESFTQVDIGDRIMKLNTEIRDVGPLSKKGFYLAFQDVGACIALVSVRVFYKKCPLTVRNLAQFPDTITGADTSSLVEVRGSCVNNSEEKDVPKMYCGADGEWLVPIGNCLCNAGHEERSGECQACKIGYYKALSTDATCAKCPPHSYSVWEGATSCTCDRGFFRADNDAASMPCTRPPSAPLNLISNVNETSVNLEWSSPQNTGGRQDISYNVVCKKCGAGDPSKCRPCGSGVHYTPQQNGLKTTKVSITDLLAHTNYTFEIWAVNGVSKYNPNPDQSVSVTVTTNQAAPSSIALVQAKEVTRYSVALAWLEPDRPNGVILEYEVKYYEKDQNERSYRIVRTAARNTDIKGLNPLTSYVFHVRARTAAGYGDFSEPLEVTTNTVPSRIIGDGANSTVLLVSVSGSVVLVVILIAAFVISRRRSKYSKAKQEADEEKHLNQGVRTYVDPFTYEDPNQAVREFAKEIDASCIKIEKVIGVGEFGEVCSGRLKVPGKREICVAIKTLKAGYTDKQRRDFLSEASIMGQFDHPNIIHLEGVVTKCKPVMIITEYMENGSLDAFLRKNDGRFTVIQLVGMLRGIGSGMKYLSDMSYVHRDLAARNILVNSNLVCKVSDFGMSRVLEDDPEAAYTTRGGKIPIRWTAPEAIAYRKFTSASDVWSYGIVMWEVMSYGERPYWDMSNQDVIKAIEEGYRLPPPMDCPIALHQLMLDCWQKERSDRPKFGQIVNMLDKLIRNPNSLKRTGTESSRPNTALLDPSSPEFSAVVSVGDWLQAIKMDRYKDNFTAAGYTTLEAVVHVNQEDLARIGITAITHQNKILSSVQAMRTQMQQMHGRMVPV

`[2H]C([2H])([2H])NC(=O)c1cc(Oc2ccc(NC(=O)c3nc(SC)oc3-c3ccc(F)s3)cc2F)ccn1` [Compound 35]: the inhibition at 5 µM was under 50% in test [1]; 50 to 79% in test [3]; under 50% in test [4]; under 50% in test [5]; under 50% in test [6]. The “inhibition of kinase activity, P38-a” value in test [2] is listed as “E (category E is less than 50%)”.
`CNC(=O)c1ccc(Oc2ccc(NC(=O)c3nc(Cl)oc3-c3ccc(F)cc3)c(F)c2)cn1` [Compound 36]: the inhibition at 5 µM in test [1], in test [3], in test [4], in test [5] and in test [6] was under 50% throughout. The “inhibition of kinase activity, P38-a” value in test [2] was “E (category E is less than 50%)”.
In the case of `CSc1nc(C(=O)Nc2ccc(Oc3ccnc(C(=O)NC4COC4)c3)c(F)c2)c(-c2ccc(F)c(F)c2)o1` [Compound 37], the inhibition at 5 µM in test [1], in test [3], in test [4], in test [5] and in test [6] was under 50% each time. Further, the “inhibition of kinase activity, P38-a” value in test [2] is reported as “C (C=80%-89% at 5 um)”.
For `CNC(=O)c1cc(Oc2ccc(NC(=O)c3nc(OCC(F)(F)F)oc3-c3ccc(F)cc3)cc2F)ccn1` [Compound 38], the inhibition at 5 µM in test [1] is under 50%; in test [3], 50 to 79%; in test [4], 80 to 89%; in test [5] it was under 50%; in test [6], under 50%. Also, the “inhibition of kinase activity, P38-a” value in test [2] is “D (category D for 50-79)”.
As for `COc1nc(C(=O)Nc2ccc(Oc3ccnc(C(=O)NC4COC4)c3)c(F)c2)c(-c2ccc(F)cc2)o1` [Compound 39], the inhibition at 5 µM in test [1] was under 50%; in test [3], 50 to 79%; in test [4], under 50%; in test [5], under 50%; in test [6] it was under 50%. Besides, the “inhibition of kinase activity, P38-a” value in test [2] was “D (category D for 50-79)”.
Turning to `CSc1nc(C(=O)Nc2ccc(Oc3ccnc(C(=O)NCC(F)(F)F)c3)c(F)c2)c(-c2ccc(F)cc2)o1` [Compound 40], the inhibition at 5 µM in test [1], in test [3], in test [4], in test [5] and in test [6] was under 50% in each case. In test [2], the “inhibition of kinase activity, P38-a” value is “D (category D for 50-79)”.
Turning to `CSc1nc(C(=O)Nc2ccc(Oc3ccnc(C(=O)NCCN(C)C)c3)c(F)c2)c(-c2ccc(F)cc2)o1` [Compound 41], the inhibition at 5 µM in test [1] was under 50%; in test [3] it was 50 to 79%; in test [4] it was under 50%; in test [5] it was under 50%; in test [6], 50 to 79%. The “inhibition of kinase activity, P38-a” value in test [2] was “A (A=95% or greater at 5 um)”.
For the compound `CSc1nc(C(=O)Nc2ccc(Oc3ccnc(C(=O)NC4CCN(C)CC4)c3)c(F)c2)c(-c2ccc(F)cc2)o1` [Compound 42], the inhibition at 5 µM in test [1], in test [3], in test [4], in test [5] and in test [6] was under 50% throughout. Moreover, the “inhibition of kinase activity, P38-a” value in test [2] was “A (A=95% or greater at 5 um)”.
Take `COc1nc(C(=O)Nc2ccc(Oc3ccnc(C(=O)NCC(F)(F)F)c3)c(F)c2)c(-c2ccc(F)cc2)o1` [Compound 43]: the inhibition at 5 µM in test [1], in test [3], in test [4], in test [5] and in test [6] was under 50% throughout. For the same compound, the “inhibition of kinase activity, P38-a” value in test [2] is on record as “E (category E is less than 50%)”.
